The record followed here is US10604554B2, “Double-acylated GLP-1 derivatives” (Novo Nordisk A/S, priority 2012, dated 2020).

pEC50, pIC50: −log10 of the molar value. Where two headings read alike, the source gives them in different places. Numbered stars: 1 amine (or outer) side, 2 acyl side, 3 side chain; on linkers, the order of the positions; unused ones are H or OH. Square brackets hold non-standard residues; d marks the D form. Side chains are listed from the residue outwards. Peptide text beside a SMILES is read from it. * marks the point of attachment. Decanoyl(10-(4-HOOC-PhO)) = O=C(O)c1ccc(OCCCCCCCCCC(=O)*)cc1; γGlu = O=C(O)[C@H](CCC(=O)[*:2])N[*:1]; εLys = N[C@@H](CCCCN[*:1])C(=O)[*:2]; AEEA = NCCOCCOCC(=O)O; Aib = CC(C)(N)C(=O)O

Test [1] concerns the target T1, human GLP-1 receptor (Homo sapiens, UniProt P43220).
T1 construct: expressed in transfected cells; host or cells: BHK cells, clone FCW467-12A/KZ10-1 (parent line BHKTS13), further transfected with CRE luciferase
In words: In vitro potency (CRE luciferase; whole cells). Conditions: for pEC50: BHK cells; for EC50/pM (ratio 1% HSA/0% HSA): ratio of EC50 at 1% HSA to EC50 at 0% HSA. Type of test: cell-based. Also on record: EC50/pM (ratio 1% HSA/0% HSA): unit not given here. The method in brief: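 Reporter: CRE-luciferase in BHK cells stably expressing human GLP-1R, 5×10^3 cells/well; compounds tested in buffer containing 0% or 1% HSA.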

Test [2] deals with T1, human GLP-1 receptor. In words: GLP-1 receptor binding (SPA, displacement of 125I-GLP-1). The essentials: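 Tracer [125I]-GLP-1(7-36)NH2 at 0.06 nM final competed on hamster stably transfected cell membranes captured by WGA SPA beads; 120 min, 30 °C, scintillation count.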
In general terms: Displacement assays read how much labelled ligand stays bound in the presence of the test substance.

Setting [3] is: In vitro potency (CRE luciferase) EC50 (1% HSA), 1% HSA.

A word on the pEC50: it is the EC50 on a negative log10 scale, so that one unit is a factor of ten. In general, pIC50 refers to the IC50 on a negative log10 scale, so that one unit is a factor of ten.

T1 sequence (P43220 24-463): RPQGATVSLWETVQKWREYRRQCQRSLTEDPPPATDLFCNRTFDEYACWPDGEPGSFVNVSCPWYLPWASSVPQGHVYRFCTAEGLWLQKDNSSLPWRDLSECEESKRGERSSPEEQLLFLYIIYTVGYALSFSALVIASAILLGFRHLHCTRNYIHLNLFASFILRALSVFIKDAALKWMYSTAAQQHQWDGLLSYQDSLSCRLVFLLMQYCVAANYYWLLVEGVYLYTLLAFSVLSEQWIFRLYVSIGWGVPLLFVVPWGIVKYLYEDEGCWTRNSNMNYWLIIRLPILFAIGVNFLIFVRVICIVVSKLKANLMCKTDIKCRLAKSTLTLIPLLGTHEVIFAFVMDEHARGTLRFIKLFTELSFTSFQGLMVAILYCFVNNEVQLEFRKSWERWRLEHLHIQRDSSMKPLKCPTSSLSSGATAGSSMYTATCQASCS

With `CC[C@H](C)[C@H](NC(=O)[C@H](Cc1ccccc1)NC(=O)[C@H](CCC(=O)O)NC(=O)[C@H](CCCCNC(=O)[C@@H](N)CCCCNC(=O)COCCOCCNC(=O)COCCOCCNC(=O)CC[C@H](NC(=O)CCCCCCCCCOc1ccc(C(=O)O)cc1)C(=O)O)NC(=O)[C@H](C)NC(=O)[C@H](C)NC(=O)[C@H](CCC(N)=O)NC(=O)[C@H](CCC(=O)O)NC(=O)[C@H](CCC(=O)O)NC(=O)[C@H](CC(C)C)NC(=O)[C@H](Cc1ccc(O)cc1)NC(=O)[C@H](CO)NC(=O)[C@H](CO)NC(=O)[C@@H](NC(=O)[C@H](CC(=O)O)NC(=O)[C@H](CO)NC(=O)[C@@H](NC(=O)[C@H](Cc1ccccc1)NC(=O)[C@@H](NC(=O)CNC(=O)[C@H](CCC(=O)O)NC(=O)C(C)(C)NC(=O)[C@@H](N)Cc1c[nH]cn1)[C@@H](C)O)[C@@H](C)O)C(C)C)C(=O)N[C@@H](C)C(=O)N[C@@H](Cc1c[nH]c2ccccc12)C(=O)N[C@@H](CC(C)C)C(=O)N[C@H](C(=O)N[C@@H](CCC(N)=O)C(=O)NCC(=O)N[C@@H](CCCNC(=N)N)C(=O)N[C@@H](CCCCNC(=O)[C@@H](N)CCCCNC(=O)COCCOCCNC(=O)COCCOCCNC(=O)CC[C@H](NC(=O)CCCCCCCCCOc1ccc(C(=O)O)cc1)C(=O)O)C(=O)O)C(C)C` [Example 18] (H-H[Aib]EGTFTSDVSSYLEEQAAK([εLys-AEEA-AEEA-γGlu-Decanoyl(10-(4-HOOC-PhO))])EFIAWLVQGRK([εLys-AEEA-AEEA-γGlu-Decanoyl(10-(4-HOOC-PhO))])-OH; N-terminus and C-terminus assumed), the negative logarithm of the EC50 (pEC50) is 10.92 on human GLP-1 receptor [1] (In vitro potency (CRE luciferase) EC50 (0% HSA), 0% HSA) and 10.10 on human GLP-1 receptor [1] (setting [3]). Also, the “EC50/pM (ratio 1% HSA/0% HSA)” value on human GLP-1 receptor [1] is given as 6.9. Moreover, the negative logarithm of the IC50 (pIC50) on human GLP-1 receptor [2] (Receptor binding affinity IC50 (high HSA), 2.0% HSA (high albumin)) was 6.80; at human GLP-1 receptor [2] (Receptor binding affinity IC50 (low HSA), 0.001% HSA (low albumin)), 9.00.

As to `CC[C@H](C)[C@H](NC(=O)[C@H](Cc1ccccc1)NC(=O)[C@H](CCC(=O)O)NC(=O)[C@H](CCCCNC(=O)[C@@H](N)CCCCNC(=O)COCCOCCNC(=O)COCCOCCNC(=O)CC[C@H](NC(=O)CCCCCCCCCCCCC(=O)O)C(=O)O)NC(=O)[C@H](C)NC(=O)[C@H](C)NC(=O)[C@H](CCC(N)=O)NC(=O)CNC(=O)[C@H](CCC(=O)O)NC(=O)[C@H](CC(C)C)NC(=O)[C@H](Cc1ccc(O)cc1)NC(=O)[C@H](CO)NC(=O)[C@H](CO)NC(=O)[C@@H](NC(=O)[C@H](CC(=O)O)NC(=O)[C@H](CO)NC(=O)[C@@H](NC(=O)[C@H](Cc1ccccc1)NC(=O)[C@@H](NC(=O)CNC(=O)[C@H](CCC(=O)O)NC(=O)C(C)(C)NC(=O)[C@@H](N)Cc1c[nH]cn1)[C@@H](C)O)[C@@H](C)O)C(C)C)C(=O)N[C@@H](C)C(=O)N[C@@H](Cc1c[nH]c2ccccc12)C(=O)N[C@@H](CC(C)C)C(=O)N[C@H](C(=O)N[C@@H](CCCNC(=N)N)C(=O)NCC(=O)N[C@@H](CCCNC(=N)N)C(=O)N[C@@H](CCCCNC(=O)[C@@H](N)CCCCNC(=O)COCCOCCNC(=O)COCCOCCNC(=O)CC[C@H](NC(=O)CCCCCCCCCCCCC(=O)O)C(=O)O)C(=O)O)C(C)C` [Example 19, N^ε26-[(2S)-2-amino-6-[[2-[2-[2-[[2-[2-[2-[[(4S)-4-carboxy-4-(13-carboxytridecanoylamino)butanoyl]amino]ethoxy]ethoxy]acetyl]amino]ethoxy]ethoxy]acetyl]amino]hexanoyl], N^ε37-[(2S)-2-amino-6-[[2-[2-[2-[[2-[2-[2-[[(4S)-4-carboxy-4-(13-carboxytridecanoylamino)butanoyl]amino]ethoxy]ethoxy]acetyl]amino]ethoxy]ethoxy]acetyl]amino]hexanoyl]-[Aib^8,Arg^34,Lys^37]-GLP-1-(7-37)-peptide], the pEC50 at human GLP-1 receptor [1] (0% HSA, read-out: In vitro potency (CRE luciferase) EC50 (0% HSA)) is 10.60; on human GLP-1 receptor [1] (setting [3]), 10.29. Further, the “EC50/pM (ratio 1% HSA/0% HSA)” value on human GLP-1 receptor [1] is on record as 2.5. The pIC50 on human GLP-1 receptor [2] (0.001% HSA (low albumin), read-out: Receptor binding affinity IC50 (low HSA)) is 9.11. The same compound displayed an IC50 (high HSA) at human GLP-1 receptor [2] (Receptor binding affinity IC50 (high HSA), 2.0% HSA (high albumin), heading: Receptor binding affinity IC50) of 147 nM.
